# According to ChEMBL document CHEMBL3244339, “Antitumor 1-(X-aryl)-3,3-dialkyltriazenes. 1. Quantitative structure-activity relationships vs. L1210 leukemia in mice” (J Med Chem, 1978):
# Calls of active or inactive are those of the source. No cut-off for these calls is given here.
# Columns and labels:
# [1] = test system: L1210; test: Antitumor activity against mouse L1210 cells allografted in mouse assessed as increase of host lifespan; assay type: functional
# [2] = Distribution coefficient, log P of the compound; assay type: physicochemical; conditions: octanol/water
# [3] = organism: Mus musculus; test: Toxicity in mouse L1210 cells allografted mouse assessed as mortality up to 5 days; assay type: organism-based; conditions: l1210, 120 h
# [4] = test system: L1210; test: Antitumor activity against mouse L1210 cells allografted in mouse assessed as increase of host lifespan of 110 days; assay type: functional, cell-based
# [5] = Aqueous phase distribution coefficient, log P of the compound in 0.01 M NaOH; assay type: physicochemical
# [6] = Octanol-saturated water partition coefficient, log D of the compound; assay type: physicochemical
SMILES,log(1/C) [1],further results
C=CCN(C)/N=N/c1ccc(C(N)=O)cc1,3.38,logP [2]: 2.09
CCCN(C)/N=N/c1ccccc1C(N)=O,3.26,–
C=CCN(C)/N=N/c1ccccc1C(N)=O,3.43,–
CCN(C)/N=N/c1ccc(NC(N)=O)cc1,3.87,–
CN(C)/N=N/c1c(Cl)cc(Cl)cc1C(N)=O,3.14,–
Cc1nc(/N=N/N(C)C)c(C(N)=O)[nH]1,3.06,–
CN(CC#N)/N=N/c1ccc(C(N)=O)cc1,–,Activity [3]: Toxic
C#CCN(C)/N=N/c1nc[nH]c1C(N)=O,3.61,–
CN(C)/N=N/c1ccccc1C(=O)NCC(N)=O,3.25,logP [2]: 1.17
CN(C)/N=N/c1ccccc1I,–,Activity [4]: inactive; logP [5]: 3.5
CN(C)/N=N/c1cc(C#N)cc(C#N)c1,2.78,logP [2]: 2.18
CN(C)/N=N/c1cccnc1,3.46,–
CN(C)/N=N/c1ccccc1C(=O)NN,–,Activity [3]: Toxic; logD [6]: 1.28
CN(C)/N=N/c1ccccc1C(=O)NCC(F)(F)F,–,Activity [4]: inactive
Cc1ccc(/N=N/N(C)C)cc1,3.76,–
CN(Cc1ccccc1)/N=N/c1ccccc1,3.03,–
COc1ccc(CN(C)/N=N/c2ccc(C#N)cc2)cc1,2.72,–
CCCN(C)/N=N/c1n[nH]cc1C(N)=O,3.7,–
CNC(=O)c1ccccc1/N=N/N(C)C,3.25,logP [2]: 1.83
CN(/N=N/c1nc[nH]c1C(N)=O)c1cccs1,3.87,–
CN(CCO)/N=N/c1ccccc1C(N)=O,3.07,–

SMILES,log(1/C) [1],further results
CCOC(=O)c1[nH]cnc1/N=N/N(C)CCO,3.38,–
CN(C)/N=N/c1c(F)cccc1F,3.63,–
CCOC(=O)c1ccc(/N=N/N(C)CC(C)C)cc1,2.8,–
CN(C)/N=N/c1ccccc1C#N,–,Activity [4]: inactive
COc1ccc(/N=N/N(C)C)c(C(=O)O)c1,–,Activity [3]: Toxic
CN(C)/N=N/c1ccc([N+](=O)[O-])cc1,–,Activity [3]: Toxic
COC(=O)c1ccccc1/N=N/N(C)CC(C)C,3.12,–
CON(C)/N=N/c1ccc(C(N)=O)cc1,–,Activity [3]: Toxic
CN/N=N/c1ccc(C)cc1,–,Activity [3]: Toxic
CN(C)/N=N/c1ccccc1Cl,3.26,logP [5]: 2.97
CN(C)/N=N/c1ccc(C(N)=O)cc1C(N)=O,3.27,–
CCCCOC(=O)c1[nH]cnc1/N=N/N(C)C,3.53,–
CN/N=N/c1nc[nH]c1C(=O)OC,3.35,–
COC(=O)c1[nH]cnc1/N=N/N(C)C,3.86,–
CN(/N=N/c1ccccc1C(=O)NN)C1CCCCC1,2.99,–
CN(C)/N=N/c1ccccc1CO,–,Activity [3]: Toxic; logP [5]: 1.73
CN(C)/N=N/c1ccc(SC#N)cc1C(N)=O,–,Activity [4]: inactive
CN(C)/N=N/c1cccc(NC(N)=O)c1,–,Activity [3]: Toxic
COc1ccc(C(N)=O)cc1/N=N/N(C)C,3.95,logP [2]: 0.44
CN(C)/N=N/c1n[nH]cc1C(N)=O,3.49,logP ([2]; read-out: logP): -0.12
CN(C)/N=N/c1ccc(Cl)cc1,–,Activity [3]: Toxic

SMILES,log(1/C) [1],further results
Cc1cccc(/N=N/N(C)C)c1,3.4,–
CN(C)/N=N/c1ccc(Cl)cc1C(N)=O,–,Activity [3]: Toxic
CCNC(=O)c1ccccc1/N=N/N(C)C,2.92,–
CN(C)/N=N/c1ccc(C(N)=O)cc1,3.51,–
CN(CCO)/N=N/c1ccccc1C#N,–,Activity [3]: Toxic
CCCCN(C)/N=N/c1ccc(C(N)=O)cc1,3.47,logD [6]: 2.46
CCCCCCCCN(C)/N=N/c1ccccc1C(=O)O,3.47,logP ([2]; read-out: logP): 0.24; logP [5]: 0.24
CCCN(C)/N=N/c1nc[nH]c1C(N)=O,3.58,–
CCN(C)/N=N/c1ccc(C(N)=O)cc1,3.66,–
CCCCCCCCOC(=O)c1[nH]cnc1/N=N/N(C)C,3.06,–
C=CCN(C)/N=N/c1n[nH]cc1C(N)=O,3.77,–
CN/N=N/c1nc[nH]c1C(=O)N1CCCC1,3.28,–
CCCCCCCCN(C)/N=N/c1nc[nH]c1C(N)=O,3,logP ([2]; read-out: logP): 3.2; logP [5]: 3.22
CN(C)/N=N/c1cc(Cl)cc(C(N)=O)c1Cl,3.04,–
CNN(C)/N=N/c1ccc(C(N)=O)cc1,–,Activity [3]: Toxic
CN(C)/N=N/c1ccc([N+](=O)[O-])cc1C(N)=O,3.26,–
CN(CCO)/N=N/c1[nH]cnc1C(N)=O,3.12,–
CC(C)Cc1nc(/N=N/N(C)C)c(C(N)=O)[nH]1,3.53,–
CN(C)/N=N/c1ccc(C(F)(F)F)cc1,–,Activity [3]: Toxic
CN(C)/N=N/c1ccc(CCCC(=O)NN)cc1,3.6,–
CC(C)N(C)/N=N/c1ccc(C(N)=O)cc1,3.17,–
